# Values quoted from earlier work, collected in patent publication US12636263B2, “Carotenoid compound coming from plant and containing natural astaxanthin, preparation method therefor, and composition” (Zhejiang Medicine Co., Ltd. Xinchang Pharmaceutical Factory, priority 2013, dated 2026).
# Legend:
# [1] = in animal body
# [2] = versus natural VE
# [3] = in vivo; Johnson and An, Crit. Rev. Biotechnol, 1991
Structure (SMILES),"bioavailability, higher than that of (3 R, 3 R)′-configuration [1] [wt %]",oxidizability (antioxidant) relative to natural VE [2] [times],"bioavailability, higher than that of astaxanthin in the form of fatty acid ester [3]"
"CC1=C(/C=C/C(C)=C/C=C/C(C)=C/C=C/C=C(C)/C=C/C=C(C)/C=C/C2=C(C)C(=O)[C@@H](O)CC2(C)C)C(C)(C)C[C@H](O)C1=O [(3 S, 3′S)-configuration, all-trans (3S, 3′S)-astaxanthin]",15,,
"CC1=C(/C=C/C(C)=C/C=C/C(C)=C/C=C/C=C(C)/C=C/C=C(C)/C=C/C2=C(C)C(=O)C(O)CC2(C)C)C(C)(C)CC(O)C1=O (stereo not drawn) [astaxanthin, 3,3′-dihydroxy-4,4′-diketo-β,β′-carotene]",,1000,higher than 15%
